Assay results taken from ChEMBL document CHEMBL1275577, “Study of the in vitro activities of rifaximin and comparator agents against 536 anaerobic intestinal bacteria from the perspective of potential utility in pathology involving bowel flora” (Antimicrob Agents Chemother, 2009).
Values after ≈ are worked out from the molar mass of the structure shown.

Legend:
[1] = tested on: Parabacteroides distasonis; assay: Antimicrobial activity against Parabacteroides distasonis by Wadsworth agar dilution method; assay type: functional
Parabacteroides merdae = assay: Antimicrobial activity against Parabacteroides merdae by Wadsworth agar dilution method; assay type: functional
Bacteroides nordii = assay: Antimicrobial activity against Bacteroides nordii by Wadsworth agar dilution method; assay type: functional
Desulfovibrio piger = assay: Antimicrobial activity against Desulfovibrio piger by Wadsworth agar dilution method; assay type: functional
Fusobacterium varium = assay: Antimicrobial activity against Fusobacterium varium by Wadsworth agar dilution method; assay type: functional
Fusobacterium sp. = assay: Antimicrobial activity against Fusobacterium sp. by Wadsworth agar dilution method; assay type: functional
[2] = tested on: Enterocloster clostridioformis; assay: Antimicrobial activity against Clostridium clostridioforme by Wadsworth agar dilution method; assay type: functional
Clostridium bolteae = assay: Antimicrobial activity against Clostridium bolteae by Wadsworth agar dilution method; assay type: functional; conditions: Enterocloster bolteae
Tissierella praeacuta = assay: Antimicrobial activity against Clostridium hastiforme by Wadsworth agar dilution method; assay type: functional
Clostridium leptum = assay: Antimicrobial activity against Clostridium leptum by Wadsworth agar dilution method; assay type: functional
Clostridium scindens = assay: Antimicrobial activity against Clostridium scindens by Wadsworth agar dilution method; assay type: functional
[3] = tested on: Paeniclostridium sordellii; assay: Antimicrobial activity against Clostridium sordellii by Wadsworth agar dilution method; assay type: functional; conditions: Paraclostridium sordellii
Clostridium tertium = assay: Antimicrobial activity against Clostridium tertium by Wadsworth agar dilution method; assay type: functional
[4] = Antimicrobial activity against Bifidobacterium infantis by Wadsworth agar dilution method; assay type: functional, Bifidobacterium longum subsp. infantis; conditions: Bifidobacterium longum
Bifidobacterium longum = assay: Antimicrobial activity against Bifidobacterium longum by Wadsworth agar dilution method; assay type: functional
Holdemania filiformis = assay: Antimicrobial activity against Holdemania filiformis by Wadsworth agar dilution method; assay type: functional
[5] = tested on: Limosilactobacillus reuteri; assay: Antimicrobial activity against Lactobacillus reuteri by Wadsworth agar dilution method; assay type: functional
Cutibacterium acnes = assay: Antimicrobial activity against Propionibacterium acnes by Wadsworth agar dilution method; assay type: functional
Anaerococcus tetradius = assay: Antimicrobial activity against Anaerococcus tetradius by Wadsworth agar dilution method; assay type: functional
[6] = tested on: Peptoniphilus asaccharolyticus; assay: Antimicrobial activity against Peptoniphilus asaccharolyticus by Wadsworth agar dilution method; assay type: functional
[7] = Drug level in stool of patient with traveler's diarrhea at 800 mg, po administered daily for 3 days; assay type: ADME, organism-based; conditions: human, in vivo, 72 h

In the case of `CC(=O)Oc1ccccc1C(=O)Nc1ncc([N+](=O)[O-])s1` [NITAZOXANIDE], the MIC50 [1] was 4 µg/mL (≈ 13 µM), the MIC90 [1] was 4 µg/mL (≈ 13 µM) and the MIC50 (Parabacteroides merdae) was 4 µg/mL (≈ 13 µM). It also gave an MIC90 (Parabacteroides merdae) of 4 µg/mL (≈ 13 µM), an MIC50 (Bacteroides nordii) of 4 µg/mL (≈ 13 µM) and an MIC90 (Bacteroides nordii) of 4 µg/mL (≈ 13 µM). The MIC50 (Desulfovibrio piger) was 1 µg/mL (≈ 3.25 µM), the MIC90 (Desulfovibrio piger) was 4 µg/mL (≈ 13 µM) and the MIC50 (Fusobacterium varium) was 1 µg/mL (≈ 3.25 µM). The MIC90 (Fusobacterium varium) was 8 µg/mL (≈ 26 µM), the MIC50 (Fusobacterium sp.) was 1 µg/mL (≈ 3.25 µM) and the MIC90 (Fusobacterium sp.) was 8 µg/mL (≈ 26 µM). The MIC50 [2] was 0.25 µg/mL (≈ 0.814 µM), the MIC90 [2] was 0.25 µg/mL (≈ 0.814 µM) and the MIC50 (Clostridium bolteae) was 0.5 µg/mL (≈ 1.63 µM). The MIC90 (Clostridium bolteae) was 4 µg/mL (≈ 13 µM), the MIC50 (Tissierella praeacuta) was 0.5 µg/mL (≈ 1.63 µM) and the MIC90 (Tissierella praeacuta) was 4 µg/mL (≈ 13 µM). For the same compound, the MIC50 (Clostridium leptum) was 0.5 µg/mL (≈ 1.63 µM), the MIC90 (Clostridium leptum) was 4 µg/mL (≈ 13 µM) and the MIC50 (Clostridium scindens) was 0.5 µg/mL (≈ 1.63 µM). For the same compound, the MIC90 (Clostridium scindens) was 4 µg/mL (≈ 13 µM), the MIC50 [3] was 0.5 µg/mL (≈ 1.63 µM) and the MIC90 [3] was 4 µg/mL (≈ 13 µM). For the same compound, the MIC50 (Clostridium tertium) was 0.5 µg/mL (≈ 1.63 µM), the MIC90 (Clostridium tertium) was 4 µg/mL (≈ 13 µM) and the MIC50 [4] was 2 µg/mL (≈ 6.51 µM). For the same compound, the MIC90 [4] was 32 µg/mL (≈ 104 µM), the MIC50 (Bifidobacterium longum) was 2 µg/mL (≈ 6.51 µM) and the MIC90 (Bifidobacterium longum) was 32 µg/mL (≈ 104 µM). The MIC50 (Holdemania filiformis) was 2 µg/mL (≈ 6.51 µM), the MIC90 (Holdemania filiformis) was 32 µg/mL (≈ 104 µM) and the MIC50 [5] was 2 µg/mL (≈ 6.51 µM). The MIC90 [5] was 32 µg/mL (≈ 104 µM), the MIC50 (Cutibacterium acnes) was 2 µg/mL (≈ 6.51 µM) and the MIC90 (Cutibacterium acnes) was 32 µg/mL (≈ 104 µM). The MIC50 (Anaerococcus tetradius) was 0.5 µg/mL (≈ 1.63 µM), the MIC90 (Anaerococcus tetradius) was 1 µg/mL (≈ 3.25 µM) and the MIC50 [6] was 0.5 µg/mL (≈ 1.63 µM). For the same compound, the MIC90 [6] was 1 µg/mL (≈ 3.25 µM).
`CO[C@H]1/C=C/O[C@@]2(C)Oc3c(C)c(O)c4c(O)c(c5c(nc6cc(C)ccn65)c4c3C2=O)NC(=O)/C(C)=C\C=C\[C@H](C)[C@H](O)[C@@H](C)[C@@H](O)[C@@H](C)[C@H](OC(C)=O)[C@@H]1C` [RIFAXIMIN] gave an MIC [1] of 0.25 µg/mL (≈ 0.318 µM), an MIC50 [1] of 0.25 µg/mL (≈ 0.318 µM) and an MIC90 [1] of 1 µg/mL (≈ 1.27 µM). For the same compound, the MIC (Parabacteroides merdae) was 0.25 µg/mL (≈ 0.318 µM), the MIC50 (Parabacteroides merdae) was 0.25 µg/mL (≈ 0.318 µM) and the MIC90 (Parabacteroides merdae) was 1 µg/mL (≈ 1.27 µM). For the same compound, the MIC (Bacteroides nordii) was 0.25 µg/mL (≈ 0.318 µM), the MIC50 (Bacteroides nordii) was 0.25 µg/mL (≈ 0.318 µM) and the MIC90 (Bacteroides nordii) was 0.5 µg/mL (≈ 0.636 µM). The MIC50 (Desulfovibrio piger) was 16 µg/mL (≈ 20.4 µM), the MIC90 (Desulfovibrio piger) was 332 µg/mL (≈ 422 µM) and the MIC50 (Fusobacterium varium) was 16 µg/mL (≈ 20.4 µM). The MIC90 (Fusobacterium varium) was greater than 1020 µg/mL, the MIC50 (Fusobacterium sp.) was 16 µg/mL (≈ 20.4 µM) and the MIC90 (Fusobacterium sp.) was greater than 1020 µg/mL. For the same compound, the MIC50 [2] was 0.25 µg/mL (≈ 0.318 µM), the MIC90 [2] was 0.25 µg/mL (≈ 0.318 µM) and the MIC (Clostridium bolteae) was 0.25 µg/mL (≈ 0.318 µM). It also gave an MIC50 (Clostridium bolteae) of 0.25 µg/mL (≈ 0.318 µM), an MIC90 (Clostridium bolteae) greater than 1020 µg/mL and an MIC (Tissierella praeacuta) of 0.25 µg/mL (≈ 0.318 µM). The MIC50 (Tissierella praeacuta) was 0.25 µg/mL (≈ 0.318 µM), the MIC90 (Tissierella praeacuta) was greater than 1020 µg/mL and the MIC (Clostridium leptum) was 0.25 µg/mL (≈ 0.318 µM). The MIC50 (Clostridium leptum) was 0.25 µg/mL (≈ 0.318 µM), the MIC90 (Clostridium leptum) was greater than 1020 µg/mL and the MIC (Clostridium scindens) was 0.25 µg/mL (≈ 0.318 µM). The MIC50 (Clostridium scindens) was 0.25 µg/mL (≈ 0.318 µM), the MIC90 (Clostridium scindens) was greater than 1020 µg/mL and the MIC [3] was 0.25 µg/mL (≈ 0.318 µM). The MIC50 [3] was 0.25 µg/mL (≈ 0.318 µM), the MIC90 [3] was greater than 1020 µg/mL and the MIC (Clostridium tertium) was 0.25 µg/mL (≈ 0.318 µM). For the same compound, the MIC50 (Clostridium tertium) was 0.25 µg/mL (≈ 0.318 µM), the MIC90 (Clostridium tertium) was greater than 1020 µg/mL and the MIC50 [4] was 0.5 µg/mL (≈ 0.636 µM). It also gave an MIC90 [4] greater than 1020 µg/mL, an MIC50 (Bifidobacterium longum) of 0.5 µg/mL (≈ 0.636 µM) and an MIC90 (Bifidobacterium longum) greater than 1020 µg/mL. The MIC50 (Holdemania filiformis) was 0.5 µg/mL (≈ 0.636 µM), the MIC90 (Holdemania filiformis) was greater than 1020 µg/mL and the MIC50 [5] was 0.5 µg/mL (≈ 0.636 µM). The MIC90 [5] was greater than 1020 µg/mL, the MIC50 (Cutibacterium acnes) was 0.5 µg/mL (≈ 0.636 µM) and the MIC90 (Cutibacterium acnes) was greater than 1020 µg/mL. It also gave an MIC (Anaerococcus tetradius) of 0.25 µg/mL (≈ 0.318 µM), an MIC50 (Anaerococcus tetradius) of 0.25 µg/mL (≈ 0.318 µM) and an MIC90 (Anaerococcus tetradius) of 4 µg/mL (≈ 5.09 µM). The MIC [6] was 0.25 µg/mL (≈ 0.318 µM), the MIC50 [6] was 0.25 µg/mL (≈ 0.318 µM) and the MIC90 [6] was 4 µg/mL (≈ 5.09 µM). For the same compound, the concentration [7] was 8000 µg/g.
With `CN[C@H](CC(C)C)C(=O)N[C@H]1C(=O)N[C@@H](CC(N)=O)C(=O)N[C@H]2C(=O)N[C@H]3C(=O)N[C@H](C(=O)N[C@H](C(=O)O)c4cc(O)cc(O)c4-c4cc3ccc4O)[C@H](O)c3ccc(c(Cl)c3)Oc3cc2cc(c3O[C@@H]2O[C@H](CO)[C@@H](O)[C@H](O)[C@H]2O[C@H]2C[C@](C)(N)[C@H](O)[C@H](C)O2)Oc2ccc(cc2Cl)[C@H]1O` [VANCOMYCIN] the MIC50 [1] was 128 µg/mL (≈ 88.3 µM), the MIC90 [1] was 128 µg/mL (≈ 88.3 µM) and the MIC50 (Parabacteroides merdae) was 128 µg/mL (≈ 88.3 µM). The MIC90 (Parabacteroides merdae) was 128 µg/mL (≈ 88.3 µM), the MIC (Bacteroides nordii) was 64 µg/mL (≈ 44.2 µM) and the MIC50 (Bacteroides nordii) was 64 µg/mL (≈ 44.2 µM). For the same compound, the MIC90 (Bacteroides nordii) was 128 µg/mL (≈ 88.3 µM), the MIC50 (Desulfovibrio piger) was greater than 1020 µg/mL and the MIC90 (Desulfovibrio piger) was greater than 1020 µg/mL. The MIC50 (Fusobacterium varium) was 256 µg/mL (≈ 177 µM), the MIC90 (Fusobacterium varium) was greater than 1020 µg/mL and the MIC50 (Fusobacterium sp.) was 256 µg/mL (≈ 177 µM). For the same compound, the MIC90 (Fusobacterium sp.) was greater than 1020 µg/mL, the MIC50 [2] was 2 µg/mL (≈ 1.38 µM) and the MIC90 [2] was 2 µg/mL (≈ 1.38 µM). The MIC50 (Clostridium bolteae) was 1 µg/mL (≈ 0.69 µM), the MIC90 (Clostridium bolteae) was 4 µg/mL (≈ 2.76 µM) and the MIC50 (Tissierella praeacuta) was 1 µg/mL (≈ 0.69 µM). It also gave an MIC90 (Tissierella praeacuta) of 4 µg/mL (≈ 2.76 µM), an MIC50 (Clostridium leptum) of 1 µg/mL (≈ 0.69 µM) and an MIC90 (Clostridium leptum) of 4 µg/mL (≈ 2.76 µM). It also gave an MIC50 (Clostridium scindens) of 1 µg/mL (≈ 0.69 µM), an MIC90 (Clostridium scindens) of 4 µg/mL (≈ 2.76 µM) and an MIC50 [3] of 1 µg/mL (≈ 0.69 µM). The MIC90 [3] was 4 µg/mL (≈ 2.76 µM), the MIC50 (Clostridium tertium) was 1 µg/mL (≈ 0.69 µM) and the MIC90 (Clostridium tertium) was 4 µg/mL (≈ 2.76 µM). For the same compound, the MIC50 [4] was 1 µg/mL (≈ 0.69 µM), the MIC90 [4] was 64 µg/mL (≈ 44.2 µM) and the MIC50 (Bifidobacterium longum) was 1 µg/mL (≈ 0.69 µM). For the same compound, the MIC90 (Bifidobacterium longum) was 64 µg/mL (≈ 44.2 µM), the MIC50 (Holdemania filiformis) was 1 µg/mL (≈ 0.69 µM) and the MIC90 (Holdemania filiformis) was 64 µg/mL (≈ 44.2 µM). It also gave an MIC50 [5] of 1 µg/mL (≈ 0.69 µM), an MIC90 [5] of 64 µg/mL (≈ 44.2 µM) and an MIC50 (Cutibacterium acnes) of 1 µg/mL (≈ 0.69 µM). The MIC90 (Cutibacterium acnes) was 64 µg/mL (≈ 44.2 µM), the MIC50 (Anaerococcus tetradius) was 0.5 µg/mL (≈ 0.345 µM) and the MIC90 (Anaerococcus tetradius) was 1 µg/mL (≈ 0.69 µM). For the same compound, the MIC50 [6] was 0.5 µg/mL (≈ 0.345 µM) and the MIC90 [6] was 1 µg/mL (≈ 0.69 µM).
